Values quoted from earlier work, collected in US6685969B2, “Treatment for ectoparasites” (Schering-Plough HealthCare Products, Inc., priority 2001, dated 2004).

Test system: Head Lice
Details: comparison of published results

## CC1(C)C(C=C(Cl)Cl)C1C(=O)OCc1cccc(Oc2ccccc2)c1 (stereo not shown) [Permethrin]
  Evidence of efficacy among topical pesticidal treatments: sufficient evidence of efficacy
